# From patent US9321747B2, “Acid addition salt of substituted pyridine compound” (DAIICHI SANKYO COMPANY, LIMITED, priority 2012, dated 2016)
# Counter-ions that a name gives are not always drawn.
# Target: recombinant human CETP protein (Homo sapiens (Human), UniProt P11597)
# Test: Test of CETP inhibition activity (in vitro, buffer-based)
# Type: biochemical
# Conditions: [14C]-cholesteryl ester transfer from reconstituted HDL to acceptor lipoprotein, 37° C., 60 minutes, PBS buffer
# Procedure: Test of CETP Inhibition Activity (In Vitro, Buffer-Based)
# (1) Preparation of Reconstituted HDL
# Cholesterol (1.125 μmol), phosphatidyl choline (4.5 μmol) and [^14C]-labeled cholesteryl ester (2.0 μCi; 40 μl) were taken in a glass test tube and well mixed with a vortex, and dried under a nitrogen gas current so that it formed a thin film. The obtained mixture was dissolved in ethanol (200 μl), which was designated as Solution A. A PBS solution [a mixed solution of Na2HPO4 (30 mM), KH2PO4 (8.8 mM), NaCl (60 mM) and EDTA (pH 7.4; 0.67 mM); 4 ml] was taken in a tube and the reaction solution was vigorously stirred with a vortex under a nitrogen current. The above-described Solution A was gently injected into this mixture with a syringe and the reaction solution was vigorously stirred with a vortex for 5 minutes under a nitrogen current. Sodium cholate (200 mM; 0.38 ml) was added to the obtained mixture and the reaction solution was stirred for 2 minutes. ApoA-I protein (3 mg) was added to the obtained mixture and the reaction solution was stirred for 2 minutes. The obtained mixture was adjusted to 5 ml with the PBS solution and then dialyzed with the PBS solution. The obtained mixture was designated as the reconstituted HDL.
# (2) Preparation of Acceptor Lipoprotein
# NaBr was added to the plasma of a healthy person and the density of the mixture was adjusted to 1.019, and the mixture was subjected to density gradient centrifugation (40000 rpm, for 16 hours) to remove the fraction having a density of less than 1.019. NaBr was added to the obtained mixture and the density of the solution was adjusted to 1.063, and the solution was subjected to density gradient centrifugation (40000 rpm, 18 hours) to provide the fraction consisting of IDL (intermediate density lipoprotein) and LDL (1.019<density<1.063). The obtained fraction was dialyzed with the PBS solution. The obtained mixture was designated as the acceptor lipoprotein.
# (3) Measurement of CETP Inhibition Activity
# A recombinant human CETP protein (manufactured by Roar Biomedical Inc.; 4.5 ng), the acceptor lipoprotein described in (2) above (32.5 μg) and 5,5′-dithio-bis-(2-nitrobenzoic acid) (7 mM, 15 μl) were taken in a 96 well plate and the total amount of the mixture was adjusted to 48.5 μl with the PBS solution. The test compound [DMSO solution (concentration: 0.15, 0.5, 1.5, 5, 15, 50, 150 and 500 μM); 1.5 μl] was added to each well and the mixture was incubated in a thermostatic bath at 37° C. for 60 minutes. The reconstituted HDL (50 μl) described in (1) above was added to each well and the mixture was reacted in a thermostatic bath at 37° C. for 60 minutes. The 96 well plate was moved onto ice and a precipitation reagent [a mixed solution of magnesium chloride (60 mM) and 0.1% dextran sulfate[1/1(v/v)]; 15 μl] was added to each well, and then the mixture was allowed to stand on ice for 15 minutes. The reaction solution (80 μl) in each well was moved to a filter plate and centrifuged at 1500 rpm for 1 minute, and the filtrate which passed through the filter was designated as the HDL fraction and the radioactivity thereof was measured with a scintillation counter. The percentage decrease in radioactivity in the case where the test compound was added in comparison with that in case where the test compound was not added was designated as the percentage CETP inhibition. The IC50 value was calculated from the percentage CETP inhibition.
# Chain of recombinant human CETP protein (P11597 18-493): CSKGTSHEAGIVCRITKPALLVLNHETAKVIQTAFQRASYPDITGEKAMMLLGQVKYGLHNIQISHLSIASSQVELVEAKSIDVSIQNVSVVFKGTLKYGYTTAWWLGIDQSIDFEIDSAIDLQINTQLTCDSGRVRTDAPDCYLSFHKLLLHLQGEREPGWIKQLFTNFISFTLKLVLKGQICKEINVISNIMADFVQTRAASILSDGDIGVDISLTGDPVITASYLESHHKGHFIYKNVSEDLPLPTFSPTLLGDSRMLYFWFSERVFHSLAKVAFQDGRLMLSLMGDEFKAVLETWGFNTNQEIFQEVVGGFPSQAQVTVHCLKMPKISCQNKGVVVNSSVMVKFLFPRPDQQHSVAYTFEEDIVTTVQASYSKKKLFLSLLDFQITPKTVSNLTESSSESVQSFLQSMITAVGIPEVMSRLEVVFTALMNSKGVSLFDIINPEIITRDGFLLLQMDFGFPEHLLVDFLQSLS
SMILES,IC50 [nM],other results
"CC1(C)Cc2nc(C3CCN(c4ncc(OCC(C)(CO)CO)cn4)CC3)c([C@@H](F)c3ccc(C(F)(F)F)cc3)c(C3CCC(F)(F)CC3)c2[C@@H](O)C1 [Example 3, (5S)-4-(4,4-Difluorocyclohexyl)-3-{(S)-fluoro[4-(trifluoromethyl)phenyl]methyl}-2-(1-{5-[3-hydroxy-2-(hydroxymethyl)-2-methylpropoxy]pyrimidin-2-yl}piperidin-4-yl)-7,7-dimethyl-5,6,7,8-tetrahydroquinolin-5-ol dihydrobromide]",,IC50 (dihydrobromide): 39.3 nM
"CC1(C)Cc2nc(C3CCN(c4ncc(OCC(CO)CO)cn4)CC3)c([C@@H](F)c3ccc(C(F)(F)F)cc3)c(C3CCC(F)(F)CC3)c2[C@@H](O)C1 [Example 2, (5S)-4-(4,4-Difluorocyclohexyl)-3-{(S)-fluoro[4-(trifluoromethyl)phenyl]methyl}-2-(1-{5-[3-hydroxy-2-(hydroxymethyl)propoxy]pyrimidin-2-yl}piperidin-4-yl)-7,7-dimethyl-5,6,7,8-tetrahydroquinolin-5-ol dihydrobromide]",30.8,
"CC1(C)Cc2nc(C3CCN(c4ncc(OCC(C)(CO)CO)cn4)CC3)c([C@@H](F)c3ccc(C(F)(F)F)cc3)c(C3CCC(F)(F)CC3)c2[C@@H](O)C1 [Example 5, (5S)-4-(4,4-Difluorocyclohexyl)-3-{(S)-fluoro[4-(trifluoromethyl)phenyl]methyl}-2-(1-{5-[3-hydroxy-2-(hydroxymethyl)-2-methylpropoxy]pyrimidin-2-yl}piperidin-4-yl)-7,7-dimethyl-5,6,7,8-tetrahydroquinolin-5-ol methanesulfonate]",28.5,
"CC1(C)Cc2nc(C3CCN(c4ncc(-c5cccc(C(=O)O)c5)cn4)CC3)c([C@@H](F)c3ccc(C(F)(F)F)cc3)c(C3CCC(F)(F)CC3)c2[C@@H](O)C1 [Example 21, (5S)-2-{1-[5-(3-Carboxyphenyl)pyrimidin-2-yl]piperidin-4-yl}-4-(4,4-difluorocyclohexyl)-3-{(S)-fluoro[4-(trifluoromethyl)phenyl]methyl}-7,7-dimethyl-5,6,7,8-tetrahydroquinolin-5-ol dihydrobromide]",,IC50 (dihydrobromide): 279 nM
"CC1(C)Cc2nc(C3CCN(c4ncc(-c5cccc(C(=O)O)c5)cn4)CC3)c([C@@H](F)c3ccc(C(F)(F)F)cc3)c(C3CCC(F)(F)CC3)c2[C@@H](O)C1 [Example 20, (5S)-2-{1-[5-(3-Carboxyphenyl)pyrimidin-2-yl]piperidin-4-yl}-4-(4,4-difluorocyclohexyl)-3-{(S)-fluoro[4-(trifluoromethyl)phenyl]methyl}-7,7-dimethyl-5,6,7,8-tetrahydroquinolin-5-ol dihydrochloride]",,IC50 (dihydrochloride): 289 nM
"CC(C)(O)CCOc1cnc(N2CCC(c3nc4c(c(C5CCC(F)(F)CC5)c3[C@@H](F)c3ccc(C(F)(F)F)cc3)[C@@H](O)CC(C)(C)C4)CC2)nc1 [Example 8, (5S)-4-(4,4-Difluorocyclohexyl)-3-{(S)-fluoro[4-(trifluoromethyl)phenyl]methyl}-2-{1-[5-(3-hydroxy-3-methylbutoxy)pyrimidin-2-yl]piperidin-4-yl}-7,7-dimethyl-5,6,7,8-tetrahydroquinolin-5-ol disuccinate]",,IC50 (disuccinate): 22.7 nM
"CC1(C)Cc2nc(C3CCN(c4ncc(OC[C@H](O)CO)cn4)CC3)c([C@@H](F)c3ccc(C(F)(F)F)cc3)c(C3CCC(F)(F)CC3)c2[C@@H](O)C1 [Example 16, (5S)-4-(4,4-Difluorocyclohexyl)-2-[1-(5-{[(2R)-2,3-dihydroxypropyl]oxy}pyrimidin-2-yl)piperidin-4-yl]-3-{(S)-fluoro[4-(trifluoromethyl)phenyl]methyl}-7,7-dimethyl-5,6,7,8-tetrahydroquinolin-5-ol dihydrobromide]",28.5,
"CC(C)(O)CCOc1cnc(N2CCC(c3nc4c(c(C5CCC(F)(F)CC5)c3[C@@H](F)c3ccc(C(F)(F)F)cc3)[C@@H](O)CC(C)(C)C4)CC2)nc1 [Example 9, (5S)-4-(4,4-Difluorocyclohexyl)-3-{(S)-fluoro[4-(trifluoromethyl)phenyl]methyl}-2-{1-[5-(3-hydroxy-3-methylbutoxy)pyrimidin-2-yl]piperidin-4-yl}-7,7-dimethyl-5,6,7,8-tetrahydroquinolin-5-ol benzenesulfonate]",11.6,
"CC1(C)Cc2nc(C3CCN(c4ncc(OCCCS(C)(=O)=O)cn4)CC3)c([C@@H](F)c3ccc(C(F)(F)F)cc3)c(C3CCC(F)(F)CC3)c2[C@@H](O)C1 [Example 17, (5S)-4-(4,4-Difluorocyclohexyl)-3-{(S)-fluoro[4-(trifluoromethyl)phenyl]methyl}-7,7-dimethyl-2-(1-{5-[3-(methylsulfonyl)propoxy]pyrimidin-2-yl}piperidin-4-yl)-5,6,7,8-tetrahydroquinolin-5-ol dihydrochloride]",,IC50 (dihydrochloride): 10 nM
"CC1(C)Cc2nc(C3CCN(c4ncc(OC[C@H](O)CO)cn4)CC3)c([C@@H](F)c3ccc(C(F)(F)F)cc3)c(C3CCC(F)(F)CC3)c2[C@@H](O)C1 [Example 15, (5S)-4-(4,4-Difluorocyclohexyl)-2-[1-(5-{[(2R)-2,3-dihydroxypropyl]oxy}pyrimidin-2-yl)piperidin-4-yl]-3-{(S)-fluoro[4-(trifluoromethyl)phenyl]methyl}-7,7-dimethyl-5,6,7,8-tetrahydroquinolin-5-ol dihydrochloride]",,IC50 (dihydrochloride): 38 nM
"CC(C)(O)CCOc1cnc(N2CCC(c3nc4c(c(C5CCC(F)(F)CC5)c3[C@@H](F)c3ccc(C(F)(F)F)cc3)[C@@H](O)CC(C)(C)C4)CC2)nc1 [Example 11, (5S)-4-(4,4-Difluorocyclohexyl)-3-{(S)-fluoro[4-(trifluoromethyl)phenyl]methyl}-2-{1-[5-(3-hydroxy-3-methylbutoxy)pyrimidin-2-yl]piperidin-4-yl}-7,7-dimethyl-5,6,7,8-tetrahydroquinolin-5-ol hemifumarate]",28.9,
"CC(C)(O)CCOc1cnc(N2CCC(c3nc4c(c(C5CCC(F)(F)CC5)c3[C@@H](F)c3ccc(C(F)(F)F)cc3)[C@@H](O)CC(C)(C)C4)CC2)nc1 [Example 10, (5S)-4-(4,4-Difluorocyclohexyl)-3-{(S)-fluoro[4-(trifluoromethyl)phenyl]methyl}-2-{1-[5-(3-hydroxy-3-methylbutoxy)pyrimidin-2-yl]piperidin-4-yl}-7,7-dimethyl-5,6,7,8-tetrahydroquinolin-5-ol maleate]",,IC50 (maleate): 13 nM
"CC1(C)Cc2nc(C3CCN(c4ncc(OCCCS(C)(=O)=O)cn4)CC3)c([C@@H](F)c3ccc(C(F)(F)F)cc3)c(C3CCC(F)(F)CC3)c2[C@@H](O)C1 [Example 19, (5S)-4-(4,4-Difluorocyclohexyl)-3-{(S)-fluoro[4-(trifluoromethyl)phenyl]methyl}-7,7-dimethyl-2-(1-{5-[3-(methylsulfonyl)propoxy]pyrimidin-2-yl}piperidin-4-yl)-5,6,7,8-tetrahydroquinolin-5-ol methanesulfonate]",22.9,
"CC1(C)Cc2nc(C3CCN(c4ncc(OC[C@@H](O)CO)cn4)CC3)c([C@@H](F)c3ccc(C(F)(F)F)cc3)c(C3CCC(F)(F)CC3)c2[C@@H](O)C1 [Example 14, (5S)-4-(4,4-Difluorocyclohexyl)-2-[1-(5-{[(2S)-2,3-dihydroxypropyl]oxy}pyrimidin-2-yl)piperidin-4-yl]-3-{(S)-fluoro[4-(trifluoromethyl)phenyl]methyl}-7,7-dimethyl-5,6,7,8-tetrahydroquinolin-5-ol dihydrobromide]",38.2,
